Experimental data taken from US8735423B2, “Bicyclic compounds as α4β2 nicotinic acetylcholine receptor ligands” (priority 2009, dated 2014).
Where a name gives a salt, the structure may show the parent alone. Read-outs that look alike come from different tables or passages of the source.

Experiments:
[1] = target: T1, recombinant human α4β2 nicotinic acetylcholine receptor (Homo sapiens, UniProt P17787+P43681); assay: Determination of IC50 and Kb values, aequorin luminescence assay in CHO cells; format: cell-based
T1 construct: expressed in transfected cells
T1 sequence (P43681 29-627): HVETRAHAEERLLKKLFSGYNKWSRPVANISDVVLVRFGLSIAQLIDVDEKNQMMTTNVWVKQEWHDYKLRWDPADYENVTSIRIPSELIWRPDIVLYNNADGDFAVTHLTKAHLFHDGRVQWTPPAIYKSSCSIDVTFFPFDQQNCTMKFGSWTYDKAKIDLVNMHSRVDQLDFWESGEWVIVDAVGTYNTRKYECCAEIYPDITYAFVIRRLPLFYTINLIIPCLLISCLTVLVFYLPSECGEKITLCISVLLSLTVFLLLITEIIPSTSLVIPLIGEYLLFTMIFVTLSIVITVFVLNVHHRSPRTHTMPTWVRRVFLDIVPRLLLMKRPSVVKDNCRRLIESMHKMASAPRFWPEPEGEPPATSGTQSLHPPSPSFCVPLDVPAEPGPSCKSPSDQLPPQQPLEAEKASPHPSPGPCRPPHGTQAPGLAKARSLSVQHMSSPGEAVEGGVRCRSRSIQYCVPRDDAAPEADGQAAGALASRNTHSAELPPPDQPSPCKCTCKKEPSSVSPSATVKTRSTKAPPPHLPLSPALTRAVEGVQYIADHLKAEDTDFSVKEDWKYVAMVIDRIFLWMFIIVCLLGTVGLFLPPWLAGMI
T1 sequence (P17787 26-502): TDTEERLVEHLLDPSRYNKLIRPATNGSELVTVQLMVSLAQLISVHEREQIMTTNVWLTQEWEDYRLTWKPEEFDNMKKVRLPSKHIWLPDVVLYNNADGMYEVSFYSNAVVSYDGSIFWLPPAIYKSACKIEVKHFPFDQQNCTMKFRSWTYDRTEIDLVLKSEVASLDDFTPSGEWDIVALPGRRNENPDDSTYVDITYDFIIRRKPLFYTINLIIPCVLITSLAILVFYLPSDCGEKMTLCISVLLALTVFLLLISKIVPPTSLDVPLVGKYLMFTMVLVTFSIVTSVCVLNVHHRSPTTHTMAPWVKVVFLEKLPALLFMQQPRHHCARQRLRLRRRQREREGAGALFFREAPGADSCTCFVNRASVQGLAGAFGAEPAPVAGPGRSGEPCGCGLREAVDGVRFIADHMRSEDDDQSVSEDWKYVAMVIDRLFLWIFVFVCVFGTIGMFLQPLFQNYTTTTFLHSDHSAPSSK
Description: Determination of IC50 and Kb Values for Nicotinic Acetylcholine α4β2 Receptor Ligands
A stable CHO cell line expressing recombinant human α4β2 nicotinic acetylcholine receptor transiently expressing aequorin protein was used for cell-based assay. The assay offers a non-radioactive based approach to determine binding of a compound to ligand gated ion channels. In this specific assay, the level of intracellular calcium which is modulated by activation or inhibition of the channel is measured. Both the channel and aequorin genes are expressed at high level under the control of powerful CMV promotor.
The above cells were grown in 96 well clear bottom white plates in Hams F12 medium containing 10% fetal bovine serum (FBS). Prior to the addition of compounds and/or agonist, cells were serum starved for six hours. Coelentarazine (a prosthetic group for aequorin protein) was added in the medium containing 0.1% dialyzed serum and incubated overnight at 27° C. Cells were washed with assay buffer and increasing concentration of the test compound or standard were added to the plate for antagonist mode. A fixed concentration of the agonist (eipbatidine) was injected into the plate and luminescence was measured for 10 seconds. For evaluation of the compound in agonist mode, increasing concentration of the standard or test compound was injected and the luminescence was measured. Luminescence units were plotted against the compound concentrations using Graphpad software. IC50 values of the compounds were defined as the concentration required in reducing the luminescent units by 50%. The Kb values were calculated by feeding the concentration of the agonist used in the assay and its EC50 value in the same software.
Literature References: Karadsheh M. S., Shah M. S., Tang X., Macdonald R. L. and Stitzel J. A. Functional characterization of mouse α4β2 nicotinic acetylcholine receptors stably expressed in HEK293T cells. J. Neurochem. 2004, 91, 1138-1150.

[2] = target: Human or Rat Nicotinic Acetylcholine α4β2 receptor (UniProt P09483+P12390); assay: Binding assay for Human or Rat Nicotinic Acetylcholine α4β2 receptor ([3H] Cytisine); conditions: [3H] Cytisine 2.5 nM, rat brain frontal cortex or recombinant human cDNA expressed in CHO cells
Description: Binding assay for Human or Rat Nicotinic Acetylcholine α4β2 receptor
Compounds can be evaluated according to the following procedures.
Materials and Methods: • Receptor source: Rat brain frontal cortex or recombinant human cDNA expressed in CHO cells • Radioligand: [^3H] Cytisine 15-40 Ci/mmol • Final ligand concentration—[2.5 nM] • Non-specific determinant: Epibatidine-[0.1 μM] • Reference compound: Epibatidine • Positive control: Epibatidine Incubation Conditions:
Increasing concentrations of test compounds or standard were incubated with membrane receptors and radioligand in 120 mM NaCl, 2.5 mM KCl, 1 mM CaCl2, 1 mM MgCl2 and 50 mM TRIS-HCl (pH 7.4) for 60 minutes at room temperature. The reaction was terminated by rapid vacuum filtration onto the glass fiber filters. Radioactivity trapped onto the filters was determined and compared to the control values in order to ascertain any interactions of the test compound(s) with either cloned human or rat receptor binding site.
Literature Reference: Bunnelle W. H., Daanen J. F., Ryther K. B., Schrimpf M. R., Dart M. J., Gelain A., Meyer M. D., Frost J. M., Anderson D. J., Buckley M., Curzon P., Cao Y-J., Puttfarcken P., Searle X., Ji J., Putman C. B., Surowy C., Toma L. and Barlocco D. Structure-Activity Studies and Analgesic Efficacy of N-(3-Pyridinyl)-Bridged Bicyclic Diamines, Exceptionally Potent Agonists at Nicotinic Acetylcholine Receptors. J. Med. Chem. 2007, 50, […].

[3] = Rodent Brain Penetration Study; conditions: in vivo; Wistar rat male, P.O, 5 mg/kg; read-out: Steady State Brain Penetration (Cb/Cp)
Description: Rodent Brain Penetration Study
Male Wistar rats (230-280 grams) obtained from NIN (National Institute of Nutrition, Hyderabad, India) was used as an experimental animal. Three animals were housed in each cage. Animals were given water and food ad libitum throughout the experiment, and maintained on a 12 hours light/dark cycle.
NCE compound was dissolved in water and administered orally. At Tmax (0.5, 1.0 and 2.0) animals were sacrificed to collect the plasma and brain tissue and was homogenized. Plasma and Brain was stored frozen at −20° C. until analysis. The concentrations of the NCE compound in plasma and Brain were determined using LC-MS/MS method.
The NCE compounds were quantified in plasma and brain homogenate by validated LC-MS/MS method using solid phase extraction technique. NCE compounds were quantified in the calibration range of 1-500 ng/mL in plasma and brain homogenate. Study samples were analyzed using calibration samples in the batch and quality control samples spread across the batch. Extents of brain-blood ratio were calculated (Cb/Cp).

[4] = Rodent Pharmacokinetic Study; conditions: Wistar, in vivo, Wister rat male; for AUC(0-t) / Cmax / Tmax / half-life: 5 mg/kg; for bioavailability: P.O 5 mg/kg vs I.V 5 mg/kg
Description: Rodent Pharmacokinetic Study
Male wistar rats (230-280 grams) obtained from NIN (National Institute of Nutrition, Hyderabad, India) were used as an experimental animal. Three to five animals were housed in each cage. Animals were kept fasted over night and maintained on a 12 hours light/dark cycle. […]
At each time point blood was collected by jugular vein. Plasma was stored frozen at −20° C. until analysis. The concentrations of the NCE compound in plasma were determined using LC-MS/MS method. Schedule time points: Pre dose 0.25, 0.5, 1, 1.5, 2, 3, 4, 6, 8, 10, 12 and 24 hours after dosing (n=3). The NCE compounds were quantified in plasma by validated LC-MS/MS method using solid phase extraction technique. NCE compounds were quantified in the calibration range of 1-2000 ng/mL in plasma. Study samples were analyzed using calibration samples in the batch and quality control samples spread across the batch. Pharmacokinetic parameters Cmax, Tmax, AUCs, T112 and Bioavailability were calculated by non-compartmental model using software WinNonlin version 5.0.1.

Male Wister rats = assay: Reversal of Formalin Induced Nociception; format: in vivo; conditions: rat, p.o., formalin 5% v/v subplantar
Description: Reversal of Formalin Induced Nociception
The anti-nociceptive properties of compounds of this invention were evaluated using a model of pain: the Formalin Induced Nociception model. Male Wister rats (230-280 grams) obtained from N. I. N. (National Institute of Nutrition, Hyderabad, India) was used as experimental animals.
Rats were habituated for 20 minutes in the arena before the experiment was started. Duration of licks, bites and flinches were noted from 0-10 minutes and 20-35 minutes after administration of formalin, subplantar into the right hind paw at concentrations of 5% v/v. 50 μL of water for injection was injected into the right hind paw of the rats of the sham group. Compounds of this invention were administered orally prior to formalin administration.

[5] = antagonist mode, fixed concentration of agonist epibatidine, CHO cells, luminescence, read-out: Kb

CN1C(COc2cccnc2)CC2CC21 (centres unmarked) [Example 2, 2-Methyl-3-(pyridin-3-yloxymethyl)-2-azabicyclo[3.1.0]hexane]
Kb [1]: 0.4 nM | Ki ([2]; read-out: Ki): 5.5 nM

Cc1ncccc1OCC1CC2CC2N1 (centres unmarked) [Example 3, 3-(2-Methylpyridin-3-yl-oxymethyl)-2-azabicyclo[3.1.0]hexane dihydrochloride]
Ki ([2]; read-out: Ki): 1000 nM

Cl.Cl.Clc1ncccc1OCC1CC2CC2N1 (centres unmarked) [Example 4, 3-(2-Chloropyridin-3-yloxymethyl)-2-azabicyclo[3.1.0]hexane dihydrochloride]
Ki ([2]; read-out: Ki): 17.5 nM | Kp [3]: 3.6 ± 0.99 | AUC(0-t) ([4]; iv, I.V): 4.17 ± 0.878 µg·h/mL | Cmax ([4]; iv, I.V): 2.6 ± 0.042 µg/mL | Tmax ([4]; iv, I.V): 4.8 min | half-life ([4]; iv, I.V): 93 ± 15 min | bioavailability ([4]; po): 54 ± 23% | AUC(0-t) ([4]; po, P.O): 2.16 ± 0.658 µg·h/mL | Cmax ([4]; po, P.O): 0.921 ± 0.268 µg/mL | Tmax ([4]; po, P.O): 15 min | half-life ([4]; po, P.O): 129 ± 30.6 min

Cl.Cl.Clc1ccc(OCC2CC3CC3N2)cn1 (centres unmarked) [Example 5, 3-(2-Chloropyridin-5-yloxymethyl)-2-azabicyclo[3.1.0]hexane dihydrochloride]
Ki [2]: 1.5 nM | Kp [3]: 2.34 ± 0.25 | AUC(0-t) ([4]; iv, I.V): 5.38 ± 0.821 µg·h/mL | Cmax ([4]; iv, I.V): 2.72 ± 0.588 µg/mL | Tmax ([4]; iv, I.V): 4.8 min | half-life ([4]; iv, I.V): 151 ± 25.8 min | bioavailability ([4]; po): 66 ± 12% | AUC(0-t) ([4]; po, P.O): 3.51 ± 0.657 µg·h/mL | Cmax ([4]; po, P.O): 1.91 ± 0.675 µg/mL | Tmax ([4]; po, P.O): 15 min | half-life ([4]; po, P.O): 200 ± 36 min

Cl.Cl.Fc1ccc(OCC2CC3CC3N2)cn1 (centres unmarked) [Example 6, 3-(2-Fluoropyridin-5-yloxymethyl)-2-azabicyclo[3.1.0]hexane dihydrochloride]
Ki ([2]; read-out: Ki): 3.9 nM | Dose (reversal of formalin induced nociception) (Male Wister rats): ≦30 mg/kg, p.o.

Brc1cncc(OCC2CC3CC3N2)c1 (centres unmarked) [Example 8, 3-(5-Bromopyridin-3-yloxymethyl)-2-azabicyclo[3.1.0]hexane tartrate]
Ki ([2]; read-out: Ki): 6.4 nM

Fc1ncccc1OCC1CC2CC2N1 (centres unmarked) [Example 9, 3-(2-Fluoropyridin-3-yloxymethyl)-2-azabicyclo[3.1.0]hexane tartrate]
Ki ([2]; read-out: Ki): 17.4 nM

CN1C(COc2cccnc2F)CC2CC21 (centres unmarked) [Example 10, 3-(2-Fluoropyridin-3-yloxymethyl)-2-methyl-2-azabicyclo[3.1.0]hexane tartrate]
Ki ([2]; read-out: Ki): 31.9 nM

CN1C(COc2cccnc2Cl)CC2CC21 (centres unmarked) [Example 11, 3-(2-Chloropyridin-3-yloxymethyl)-2-methyl-2-azabicyclo[3.1.0]hexane]
Kb [1]: 13.5 nM | Ki ([2]; read-out: Ki): 28.1 nM

Cc1ncccc1OCC1CC2CC2N1C (centres unmarked) [Example 12, 2-Methyl-3-(2-methylpyridin-3-yloxymethyl)-2-azabicyclo[3.1.0]hexane]
Ki ([2]; read-out: Ki): 231 nM

Cc1ccc(OCC2CC3CC3N2C)cn1 (centres unmarked) [Example 13, 2-Methyl-3-(2-methylpyridin-5-yloxymethyl)-2-azabicyclo[3.1.0]hexane]
Kb [1, 5]: 5 nM | Ki [2]: 0.3 nM

CN1C(COc2ccc(Cl)nc2)CC2CC21 (centres unmarked) [Example 14, 3-(2-Chloropyridin-5-yloxymethyl)-2-methyl-2-azabicyclo[3.1.0]hexane]
Ki ([2]; read-out: Ki): 3.4 nM

CN1C(COc2ccc(F)nc2)CC2CC21 (centres unmarked) [Example 15, 3-(2-Fluoropyridin-5-yloxymethyl)-2-methyl-2-azabicyclo[3.1.0]hexane]
Ki ([2]; read-out: Ki): 1.1 nM

CN1C(COc2cncc(Cl)c2)CC2CC21 (centres unmarked) [Example 16, 3-(5-Chloropyridin-3-yloxymethyl)-2-methyl-2-azabicyclo[3.1.0]hexane]
Kb [1]: 0.4 nM | Ki ([2]; read-out: Ki): 0.37 nM

CN1C(COc2cncc(Br)c2)CC2CC21 (centres unmarked) [Example 17, 3-(5-Bromopyridin-3-yloxymethyl)-2-methyl-2-azabicyclo[3.1.0]hexane dihydrochloride]
Ki ([2]; read-out: Ki): 4.2 nM

Cc1ccc(OCC2CC3CC3N2)cn1 (centres unmarked) [Example 18, 3-(2-Methylpyridin-5-yloxymethyl)-2-azabicyclo[3.1.0]hexane]
Kb [1, 5]: 22 nM | Ki [2]: 26.1 nM

c1cncc(OCC2CCC3CC3N2)c1 (centres unmarked) [Example 19, 3-(Pyridin-3-yloxymethyl)-2-azabicyclo[4.1.0]heptane hydrochloride]
Ki ([2]; read-out: Ki): 8.2 nM

Clc1cncc(OCC2CCC3CC3N2)c1 (centres unmarked) [Example 20, 3-(5-Chloropyridin-3-yloxymethyl)-2-azabicyclo[4.1.0]heptane hydrochloride]
Ki ([2]; read-out: Ki): 216 nM
